Reference: US20070299098A1, “Therapeutic Agent for Neuropathic Pain” (Japan Science and Technology Agency, priority 2004, published 2007)

Key:
[1] = test system: hyperalgesia model induced by complete ligation of the L5/L6 spinal nerves; test: Thermal stimulation test (plantar thermal stimulation tester), left plantar pain threshold in hyperalgesia model; assay type: in vivo, rats; details: for maximum pain threshold following administration (thermal stimulation): thermal stimulation intensity 35, measured 20, 40, 60 min after administration, male rats; for change of pain threshold versus saline control, in words (thermal stimulation): intraperitoneal, effective doses
Description: (§1) Use was made of a hyperalgesia model induced by complete ligation of the L5/L6 spinal nerves in five- to seven-week-old male rats as the experimental animals.
(§2) Mechanical stimulation tests were carried out using the Ugo Basile Model 37400 Dynamic Plantar Aesthesiometer, and thermal stimulation tests were carried out using a plantar thermal stimulation tester (Plantar Test 7370, Ugo Basile). The pain thresholds of the feet on each model animal were measured, and the animals were divided into groups having uniform pain thresholds as measured prior to administration on each day of the experiment. In mechanical stimulation, animals for which the model animal foot pain threshold was 8.0 g or more were excluded from the tests. In thermal stimulation, animals for which the pain threshold for the model foot was 10 seconds or more were excluded from the tests.
(§3) The required amount of the test substance was weighed out and dissolved in physiological saline as the medium. A 2 mg/ml solution was prepared as the highest concentration mixture in the low dosage study, and a 24 mg/ml solution was prepared as the highest concentration mixture in the high dosage study. Solutions at the various concentrations were all prepared at the time of use by suitably diluting these highest concentration mixtures.
Using the syringe barrel and needle, a volume of 5 ml/kg was administrated intraperitoneally.
Groups of five male rats (356.7 to 444.0 g) in which the hyperalgesia model had been induced were used.
Groups of five male rats (400.3 to 499.9 g) in which the hyperalgesia model had been induced were used.
Groups of five male rats (324.8 to 399.0 g) in which the hyperalgesia model had been induced were used.
(§4) Groups of five male rats (307.0 to 393.1 g) in which the hyperalgesia model had been induced were used. A plantar thermal stimulation tester set to a thermal stimulation intensity of 35 was used to measure the left plantar pain threshold before naloxonazine administration, and 20 minutes, 40 minutes and 60 minutes after administration.
as §4, with “(365.3” for “(307.0”, “437.2” for “393.1”, “naltrindole” for “naloxonazine”

[2] = test system: hyperalgesia model induced by complete ligation of the L5/L6 spinal nerves; test: Mechanical stimulation test (Dynamic Plantar Aesthesiometer), left plantar pain threshold in hyperalgesia model; assay type: in vivo, rats; details: for maximum pain threshold following administration (mechanical stimulation): measured 20, 40, 60 min after administration, male rats; for change of pain threshold versus saline control, in words (mechanical stimulation): intraperitoneal, effective doses, Dunnett's multiple comparison test
Description: as §1, §2, §3
Although the object here is to ascertain the direct effect of the test substance on the spinal cord, because the substance has been confirmed to pass through the blood-brain barrier, intraperitoneal administration, which is a simple method of administration, was employed. Using the syringe barrel and needle, a volume of 5 ml/kg was administrated intraperitoneally.
Groups of five male rats (333.7 to 414.2 g) in which the hyperalgesia model had been induced were used.
Groups of five male rats (372.0 to 459.5 g) in which the hyperalgesia model had been induced were used.
Groups of five male rats (295.6 to 356.6 g) in which the hyperalgesia model had been induced were used. […]

[3] = high dose study, 30-120 mg/kg intraperitoneal

Row | Structure (SMILES) | maximum pain threshold following administration (thermal stimulation) ([1]; 0.3 mg/kg intraperitoneal) [s] | change of pain threshold versus saline control, in words (thermal stimulation) [1] | maximum pain threshold following administration (mechanical stimulation) ([2]; 0.3 mg/kg intraperitoneal) [g] | maximum pain threshold following administration (mechanical stimulation) ([2]; 3 mg/kg intraperitoneal) [g] | maximum pain threshold following administration (mechanical stimulation) ([2]; 30 mg/kg intraperitoneal) [g] | change of pain threshold versus saline control, in words (mechanical stimulation) [2] | maximum pain threshold following administration (thermal stimulation) ([1]; 0.1 mg/kg intraperitoneal) [s] | maximum pain threshold following administration (thermal stimulation) ([1]; 1 mg/kg intraperitoneal) [s] | maximum pain threshold following administration (thermal stimulation) ([1]; 120 mg/kg intraperitoneal) [s] | dose at which the analgesic effect reached its peak (thermal stimulation) [1, 3] [mg/kg] | maximum pain threshold following administration (mechanical stimulation) ([2]; 0.1 mg/kg intraperitoneal) [g] | maximum pain threshold following administration (mechanical stimulation) ([2]; 1 mg/kg intraperitoneal) [g] | maximum pain threshold following administration (mechanical stimulation) ([2]; 10 mg/kg intraperitoneal) [g] | maximum pain threshold following administration (mechanical stimulation) ([2]; 60 mg/kg intraperitoneal) [g] | maximum pain threshold following administration (mechanical stimulation) ([2]; 120 mg/kg intraperitoneal) [g] | dose at which the analgesic effect reached its peak (mechanical stimulation) [2, 3] [mg/kg] | maximum pain threshold following administration (thermal stimulation) ([1]; 3 mg/kg intraperitoneal) [s] | maximum pain threshold following administration (thermal stimulation) ([1]; 30 mg/kg intraperitoneal) [s]
1 | O=C1CC[C@@]2(O)[C@H]3Cc4ccc(O)c5c4[C@@]2(CCN3CC2CC2)[C@H]1O5 [naltrexone] | 7.7 | rose significantly with the administration of 3 and 30 mg/kg | 5.1 | 6.7 | 10.1 | rose significantly with the administration of 30 mg/kg | – | – | – | – | – | – | – | – | – | – | – | –
2 | C=CCN1CC[C@]23c4c5ccc(O)c4O[C@H]2C(=O)CC[C@@]3(O)[C@H]1C5 [naloxone] | – | rose significantly with the administration of 10 mg | – | – | 10.4 | rose significantly with the administration of 1 mg and 10 mg | 7.2 | 9.2 | 23.8 | 30 | 5.8 | 7.7 | 9.5 | 10.6 | 10.3 | 60 | – | –
3 | Oc1ccc2c3c1O[C@H]1c4[nH]c5ccccc5c4C[C@@]4(O)[C@@H](C2)N(CC2CC2)CC[C@]314 [naltrindole] | 7.0 | rose significantly with the administration of 3 and 30 mg/kg | 5.8 | 9.4 | 14.1 | rose significantly with the administration of 3 and 30 mg/kg | – | – | – | – | – | – | – | – | – | – | 9.2 | 9.2
4 | C=CCN1CC[C@]23c4c5ccc(O)c4O[C@H]2/C(=N/N=C2\CC[C@@]4(O)[C@H]6Cc7ccc(O)c8c7[C@@]4(CCN6CC=C)[C@H]2O8)CC[C@@]3(O)[C@H]1C5 [naloxonazine] | 6.9 | rose significantly with the administration of 30 mg/kg | 4.9 | 8.6 | 14.5 | rose significantly with the administration of 3 and 30 mg/kg | – | – | – | – | – | – | – | – | – | – | 7.9 | 12.3
